From patent publication US20260138978A1, “POSITIVE ALLOSTERIC MODULATORS OF THE MUSCARINIC ACETYLCHOLINE RECEPTOR M1” (Vanderbilt University, priority 2022, published 2026)
pEC50: −log10 of the molar value.

Assays:
human mAChRM1 [1] = target: T1, human mAChRM1 (Homo sapiens, UniProt P11229); test: mAChR M1 cell-based functional assay (calcium mobilization), positive allosteric modulator activity: increase in the EC20 acetylcholine response; settings: for Emax: PAM mode; for pEC50: increase in the EC20 acetylcholine response, read-out: PAM Activity Human M1 EC50
T1 construct: host or cells: CHO-K1
T1 sequence (P11229 1-460): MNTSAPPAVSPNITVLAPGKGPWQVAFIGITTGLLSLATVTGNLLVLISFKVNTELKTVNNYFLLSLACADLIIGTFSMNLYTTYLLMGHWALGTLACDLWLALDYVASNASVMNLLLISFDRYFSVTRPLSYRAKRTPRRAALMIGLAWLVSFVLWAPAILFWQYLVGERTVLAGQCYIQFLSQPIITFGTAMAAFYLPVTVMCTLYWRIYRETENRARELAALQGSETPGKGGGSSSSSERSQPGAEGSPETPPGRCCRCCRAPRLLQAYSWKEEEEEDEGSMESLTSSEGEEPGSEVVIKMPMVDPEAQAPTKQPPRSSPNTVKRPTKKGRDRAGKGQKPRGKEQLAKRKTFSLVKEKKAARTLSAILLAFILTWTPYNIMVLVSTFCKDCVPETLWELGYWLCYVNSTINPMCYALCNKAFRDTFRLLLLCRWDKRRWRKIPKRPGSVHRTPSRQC
In short: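 Potentiation is scored as the rise in an EC20 acetylcholine-evoked calcium signal across 11-point (1:3) compound series, fitted with a four-parameter logistic equation to give EC50 and Emax. Read-out is Fluo-4 fluorescence ratio in hM1-transfected CHO-K1 cells, measured kinetically on FDSS.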

human mAChRM1 [2] = target: T1, human mAChRM1; test: mAChR M1 cell-based functional assay (calcium mobilization), agonist activity upon compound addition, Emax relative to acetylcholine maximum; settings: for pEC50 / Agonist Activity Human M1 EC50: calcium mobilization upon compound addition; for Emax: relative to the maximum for acetylcholine
In short: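 Emax is given as a percentage of the maximal acetylcholine response, from four-parameter curves of compound-evoked calcium mobilization. Human M1-transfected CHO-K1 cells carried Fluo-4 dye, and compound (11 concentrations, 1:3 steps) was applied at 4 s of a 300 s kinetic fluorescence recording.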

Emax (human mAChRM1 [1]) [%] | pEC50 (human mAChRM1 [1]) | pEC50 (human mAChRM1 [2]) | Emax (human mAChRM1 [2]) [%] | Agonist Activity Human M1 EC50 (human mAChRM1 [2]) | SMILES
89 | 6.27 | 5.10 | 29 | – | Cc1nc2c(-c3cc(F)c(CN4Cc5ncccc5C4=O)c(F)c3)ccc(C(C)(C)O)n2n1 [Compound 115, 6-(2,6-difluoro-4-(5-(2-hydroxypropan-2-yl)-2-methyl-[1,2,4]triazolo[1,5-a]pyridin-8-yl)benzyl)-6,7-dihydro-5H-pyrrolo[3,4-b]pyridin-5-one]
81 | 5.72 | – | – | inactive | Cn1cc2c(-c3cc(F)c(CN4Cc5ncccc5C4=O)c(F)c3)cc(C(C)(C)O)cc2n1 [Compound 24, 6-(2,6-Difluoro-4-(6-(2-hydroxypropan-2-yl)-2-methyl-2H-indazol-4-yl)benzyl)-6,7-dihydro-5H-pyrrolo[3,4-b]pyridin-5-one]
72 | 6.11 | < 5.00 | 15 | – | Cn1cc2c(-c3cc(F)c(CN4Cc5ncccc5C4=O)c(F)c3)ccc(C3(O)CC(F)(F)C3)c2n1 [Compound 105, 6-(4-(7-(3,3-difluoro-1-hydroxycyclobutyl)-2-methyl-2H-indazol-4-yl)-2,6-difluorobenzyl)-6,7-dihydro-5H-pyrrolo[3,4-b]pyridin-5-one]
87 | 7.10 | 5.42 | 46 | – | Cn1cc2c(-c3cc(F)c(CN4Cc5ncncc5C4=O)c(F)c3)ccc(C(C)(C)O)c2n1 [Compound 139, 6-(2,6-difluoro-4-(7-(2-hydroxypropan-2-yl)-2-methyl-2H-indazol-4-yl)benzyl)-6,7-dihydro-5H-pyrrolo[3,4-d]pyrimidin-5-one]
65 | 6.49 | ≤ 5.00 | 17 | – | Cn1cc2cc(-c3ccc(CN4Cc5ncccc5C4=O)c(F)c3)cc(C(C)(C)O)c2n1 [Compound 34, 6-(2-fluoro-4-(7-(2-hydroxypropan-2-yl)-2-methyl-2H-indazol-5-yl)benzyl)-6,7-dihydro-5H-pyrrolo[3,4-b]pyridin-5-one]
88 | 6.63 | ≤ 5.00 | 17 | – | COc1cc(-c2ccc(C(C)(C)O)c3nn(C)cc23)cc(F)c1CN1Cc2cccnc2C1=O [Compound 116, 6-(2-fluoro-4-(7-(2-hydroxypropan-2-yl)-2-methyl-2H-indazol-4-yl)-6-methoxybenzyl)-5,6-dihydro-7H-pyrrolo[3,4-b]pyridin-7-one]
73 | 6.74 | ≤ 5.00 | 30 | – | Cn1cc2c(-c3cc(F)c(CN4Cc5ncccc5C4=O)cc3F)ccc(C(C)(C)O)c2n1 [Compound 62, 6-(2,5-difluoro-4-(7-(2-hydroxypropan-2-yl)-2-methyl-2H-indazol-4-yl)benzyl)-6,7-dihydro-5H-pyrrolo[3,4-b]pyridin-5-one]
80 | ≤ 5.00 | – | – | inactive | CC(C)(O)c1ccc(-c2cc(F)c(CN3Cc4ncccc4C3=O)c(F)c2)cn1 [Compound 6, 6-(2,6-difluoro-4-(6-(2-hydroxypropan-2-yl)pyridin-3-yl)benzyl)-6,7-dihydro-5H-pyrrolo[3,4-b]pyridin-5-one]
77 | 7.09 | 5.52 | 41 | – | [2H]C([2H])([2H])n1cc2c(-c3cc(C)c(CN4Cc5ncccc5C4=O)c(F)c3)ccc(C(C)(C)O)c2n1 (single isomer, unassigned) [Compound 15, 6-(2-fluoro-4-(7-(2-hydroxypropan-2-yl)-2-(methyl-d3)-2H-indazol-4-yl)-6-methylbenzyl)-6,7-dihydro-5H-pyrrolo[3,4-b]pyridin-5-one]
71 | 5.71 | – | – | inactive | Cn1cc2cc(-c3ccc(CN4Cc5cccc(F)c5C4=O)c(F)c3F)cc(C(C)(C)O)c2n1 [Compound 170, 2-(2,3-difluoro-4-(7-(2-hydroxypropan-2-yl)-2-methyl-2H-indazol-5-yl)benzyl)-7-fluoroisoindolin-1-one]
